Experimental data from publication doi:10.1101/2023.10.20.563248v1 (biorxiv, 2023).

How the values were obtained:
Conditions in all cases: 1 µM; inhibitor
LCK = LCK (Homo sapiens, UniProt P06239)
NEK6 = NEK6 (Homo sapiens, UniProt Q9HC98)
MKNK2 = MKNK2 (Homo sapiens, UniProt Q9HBH9)
JNK3 = JNK3 (Homo sapiens, UniProt P53779)
BMPR1B = BMPR1B (Homo sapiens, UniProt O00238)
FAK = FAK (Homo sapiens, UniProt Q05397)
ACVR2B = ACVR2B (Homo sapiens, UniProt Q13705)
CDK4/CycD2 = CDK4/CycD2 (Homo sapiens, UniProt P11802)
Chain of CDK4/CycD2 (P11802 whole entry): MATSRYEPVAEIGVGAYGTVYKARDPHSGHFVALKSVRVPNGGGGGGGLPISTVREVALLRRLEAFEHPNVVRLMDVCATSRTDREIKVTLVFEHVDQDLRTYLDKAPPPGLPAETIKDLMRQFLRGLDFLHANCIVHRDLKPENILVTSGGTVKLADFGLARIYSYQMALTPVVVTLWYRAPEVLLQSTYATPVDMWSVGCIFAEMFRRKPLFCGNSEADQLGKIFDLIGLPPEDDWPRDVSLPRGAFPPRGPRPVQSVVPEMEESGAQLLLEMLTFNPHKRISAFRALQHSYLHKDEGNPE
Chain of CDK4/CycD2 (P30279 whole entry partner): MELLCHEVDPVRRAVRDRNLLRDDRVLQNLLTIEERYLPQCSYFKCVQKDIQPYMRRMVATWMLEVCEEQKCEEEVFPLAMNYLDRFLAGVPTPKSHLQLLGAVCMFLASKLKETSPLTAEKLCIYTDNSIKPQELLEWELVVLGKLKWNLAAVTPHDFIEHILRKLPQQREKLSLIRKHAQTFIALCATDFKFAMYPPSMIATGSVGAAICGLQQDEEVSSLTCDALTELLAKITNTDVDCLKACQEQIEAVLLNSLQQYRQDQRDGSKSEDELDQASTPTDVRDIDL

ARK5 = ARK5 (Homo sapiens, UniProt O60285)
Chain of ARK5 (O60285 whole entry): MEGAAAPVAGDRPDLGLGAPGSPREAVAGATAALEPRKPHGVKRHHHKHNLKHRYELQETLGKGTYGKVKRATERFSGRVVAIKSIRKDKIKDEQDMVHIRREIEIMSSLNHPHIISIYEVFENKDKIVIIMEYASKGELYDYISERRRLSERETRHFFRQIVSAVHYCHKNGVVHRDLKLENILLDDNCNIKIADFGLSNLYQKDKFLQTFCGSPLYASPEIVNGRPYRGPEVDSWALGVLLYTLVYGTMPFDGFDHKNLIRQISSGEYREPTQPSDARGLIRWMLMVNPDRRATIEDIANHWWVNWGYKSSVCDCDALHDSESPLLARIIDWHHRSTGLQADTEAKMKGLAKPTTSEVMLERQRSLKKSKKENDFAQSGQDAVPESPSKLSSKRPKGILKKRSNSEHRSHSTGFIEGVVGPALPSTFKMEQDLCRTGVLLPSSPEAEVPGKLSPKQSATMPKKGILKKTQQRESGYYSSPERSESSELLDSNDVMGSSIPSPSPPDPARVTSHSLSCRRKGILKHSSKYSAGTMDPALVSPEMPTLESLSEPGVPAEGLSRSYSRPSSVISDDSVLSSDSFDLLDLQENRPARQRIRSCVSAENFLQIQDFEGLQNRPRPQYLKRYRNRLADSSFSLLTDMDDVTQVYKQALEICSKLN

IKKe = IKKe (Homo sapiens, UniProt Q14164)
DYRK4 = DYRK4 (Homo sapiens, UniProt Q9NR20)
Chain of DYRK4 (Q9NR20 whole entry): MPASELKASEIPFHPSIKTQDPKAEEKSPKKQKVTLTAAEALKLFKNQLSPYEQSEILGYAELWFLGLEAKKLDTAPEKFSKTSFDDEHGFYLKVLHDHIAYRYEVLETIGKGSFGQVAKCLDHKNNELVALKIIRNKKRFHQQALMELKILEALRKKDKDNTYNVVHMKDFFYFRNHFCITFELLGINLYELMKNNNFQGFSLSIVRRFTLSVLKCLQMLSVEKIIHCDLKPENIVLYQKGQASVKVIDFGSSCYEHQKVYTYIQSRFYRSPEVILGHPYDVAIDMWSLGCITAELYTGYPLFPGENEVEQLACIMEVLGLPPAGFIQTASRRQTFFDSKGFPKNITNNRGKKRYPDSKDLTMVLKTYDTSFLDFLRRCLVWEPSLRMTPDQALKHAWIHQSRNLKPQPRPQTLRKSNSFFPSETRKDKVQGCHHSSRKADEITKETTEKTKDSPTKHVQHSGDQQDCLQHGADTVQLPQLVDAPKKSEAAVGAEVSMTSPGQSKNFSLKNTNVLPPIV

TSSK1 = TSSK1 (Homo sapiens, UniProt Q9BXA7)
Chain of TSSK1 (Q9BXA7 whole entry): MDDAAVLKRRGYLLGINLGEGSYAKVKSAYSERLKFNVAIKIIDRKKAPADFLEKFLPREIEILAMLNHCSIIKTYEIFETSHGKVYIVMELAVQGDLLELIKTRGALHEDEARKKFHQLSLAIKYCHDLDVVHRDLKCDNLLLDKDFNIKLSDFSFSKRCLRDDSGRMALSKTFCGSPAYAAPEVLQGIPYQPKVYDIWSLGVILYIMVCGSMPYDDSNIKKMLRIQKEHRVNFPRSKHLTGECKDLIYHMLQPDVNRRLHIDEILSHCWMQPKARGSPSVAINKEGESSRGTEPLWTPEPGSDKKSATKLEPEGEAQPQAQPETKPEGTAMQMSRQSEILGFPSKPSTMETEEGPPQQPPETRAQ

SLK = SLK (Homo sapiens, UniProt Q9H2G2)
DCAMKL2 = DCAMKL2 (Homo sapiens, UniProt Q8N568)
STK39 = STK39 (Homo sapiens, UniProt Q9UEW8)
TLK2 = TLK2 (Homo sapiens, UniProt Q86UE8)
PKMzeta = PKMzeta (Homo sapiens, UniProt Q05513)
Chain of PKMzeta (Q05513 whole entry): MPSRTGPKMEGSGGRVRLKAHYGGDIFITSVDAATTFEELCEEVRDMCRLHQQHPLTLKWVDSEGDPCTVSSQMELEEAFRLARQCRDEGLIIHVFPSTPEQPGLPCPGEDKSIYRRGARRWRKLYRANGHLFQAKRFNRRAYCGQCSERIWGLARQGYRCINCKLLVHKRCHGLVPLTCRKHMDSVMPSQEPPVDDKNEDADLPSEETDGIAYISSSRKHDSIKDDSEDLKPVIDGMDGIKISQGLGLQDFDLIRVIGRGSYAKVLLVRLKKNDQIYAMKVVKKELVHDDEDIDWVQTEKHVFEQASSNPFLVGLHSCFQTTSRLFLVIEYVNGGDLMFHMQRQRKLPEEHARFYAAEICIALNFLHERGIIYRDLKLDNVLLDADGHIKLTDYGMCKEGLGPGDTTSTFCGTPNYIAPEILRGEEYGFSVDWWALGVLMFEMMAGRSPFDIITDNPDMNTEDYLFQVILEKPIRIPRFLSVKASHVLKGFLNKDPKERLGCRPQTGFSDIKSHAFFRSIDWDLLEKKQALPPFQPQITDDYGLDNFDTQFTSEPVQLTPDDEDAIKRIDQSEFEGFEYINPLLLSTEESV

EPHB2 = EPHB2 (Homo sapiens, UniProt P29323)
CHK2 = CHK2 (Homo sapiens, UniProt O96017)
Chain of CHK2 (O96017 whole entry): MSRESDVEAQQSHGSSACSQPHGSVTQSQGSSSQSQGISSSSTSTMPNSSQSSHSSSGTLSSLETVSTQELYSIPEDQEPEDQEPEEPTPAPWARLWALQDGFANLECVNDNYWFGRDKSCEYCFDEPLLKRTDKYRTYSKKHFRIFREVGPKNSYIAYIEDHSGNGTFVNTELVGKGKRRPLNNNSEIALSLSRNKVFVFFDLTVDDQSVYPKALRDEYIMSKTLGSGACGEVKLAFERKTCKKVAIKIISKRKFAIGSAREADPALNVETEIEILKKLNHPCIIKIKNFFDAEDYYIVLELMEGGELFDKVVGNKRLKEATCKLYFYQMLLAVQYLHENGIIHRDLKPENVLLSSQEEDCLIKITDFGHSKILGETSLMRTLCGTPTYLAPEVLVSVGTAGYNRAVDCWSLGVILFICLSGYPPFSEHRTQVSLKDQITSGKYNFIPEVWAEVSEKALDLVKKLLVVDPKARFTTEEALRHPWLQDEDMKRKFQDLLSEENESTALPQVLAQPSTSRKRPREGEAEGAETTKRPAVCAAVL

ROCK1 = ROCK1 (Homo sapiens, UniProt Q13464)
RPS6KA1 = RPS6KA1 (Homo sapiens, UniProt Q15418)
GRK2 = GRK2 (Homo sapiens, UniProt P25098)
VEGFR2 = VEGFR2 (Homo sapiens, UniProt P35968)
Chain of VEGFR2 (P35968 whole entry): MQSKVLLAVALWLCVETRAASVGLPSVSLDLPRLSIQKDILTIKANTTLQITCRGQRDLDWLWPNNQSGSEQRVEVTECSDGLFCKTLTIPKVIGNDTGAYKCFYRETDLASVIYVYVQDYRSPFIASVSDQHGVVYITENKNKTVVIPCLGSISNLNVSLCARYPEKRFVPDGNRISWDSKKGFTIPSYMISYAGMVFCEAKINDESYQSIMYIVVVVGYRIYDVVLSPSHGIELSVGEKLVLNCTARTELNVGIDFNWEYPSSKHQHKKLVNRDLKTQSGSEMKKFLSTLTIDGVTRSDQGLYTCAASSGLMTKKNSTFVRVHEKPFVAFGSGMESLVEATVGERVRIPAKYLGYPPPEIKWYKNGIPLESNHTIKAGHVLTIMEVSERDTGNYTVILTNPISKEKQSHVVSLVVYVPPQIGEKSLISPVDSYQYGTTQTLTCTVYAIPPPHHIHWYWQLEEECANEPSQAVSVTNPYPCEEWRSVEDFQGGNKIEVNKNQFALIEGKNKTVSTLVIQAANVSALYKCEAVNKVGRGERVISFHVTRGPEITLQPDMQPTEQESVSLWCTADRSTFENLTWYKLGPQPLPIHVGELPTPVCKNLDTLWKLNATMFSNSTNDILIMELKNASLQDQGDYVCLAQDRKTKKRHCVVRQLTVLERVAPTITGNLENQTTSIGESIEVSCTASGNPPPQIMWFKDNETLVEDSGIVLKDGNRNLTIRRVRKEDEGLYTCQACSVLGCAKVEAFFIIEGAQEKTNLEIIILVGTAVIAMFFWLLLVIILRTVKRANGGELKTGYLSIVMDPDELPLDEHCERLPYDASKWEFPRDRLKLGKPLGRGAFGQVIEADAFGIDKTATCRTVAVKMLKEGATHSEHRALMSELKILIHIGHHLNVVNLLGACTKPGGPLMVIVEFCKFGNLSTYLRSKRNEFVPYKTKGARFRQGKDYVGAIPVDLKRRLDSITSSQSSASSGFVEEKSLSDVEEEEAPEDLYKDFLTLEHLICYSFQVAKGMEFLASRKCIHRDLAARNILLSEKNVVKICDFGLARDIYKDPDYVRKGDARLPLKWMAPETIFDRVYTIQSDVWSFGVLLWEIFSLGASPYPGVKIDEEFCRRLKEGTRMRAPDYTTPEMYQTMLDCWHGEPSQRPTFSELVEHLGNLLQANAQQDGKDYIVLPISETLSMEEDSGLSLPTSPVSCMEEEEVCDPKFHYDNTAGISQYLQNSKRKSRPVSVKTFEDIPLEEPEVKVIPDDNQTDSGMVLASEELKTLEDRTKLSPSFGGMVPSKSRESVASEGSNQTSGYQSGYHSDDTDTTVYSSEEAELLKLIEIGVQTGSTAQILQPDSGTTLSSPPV

CK2a1 = CK2a1 (Homo sapiens, UniProt P68400)
CDK8 = CDK8 (Homo sapiens, UniProt P49336)
MAPKAPK3 = MAPKAPK3 (Homo sapiens, UniProt Q16644)
Chain of MAPKAPK3 (Q16644 whole entry): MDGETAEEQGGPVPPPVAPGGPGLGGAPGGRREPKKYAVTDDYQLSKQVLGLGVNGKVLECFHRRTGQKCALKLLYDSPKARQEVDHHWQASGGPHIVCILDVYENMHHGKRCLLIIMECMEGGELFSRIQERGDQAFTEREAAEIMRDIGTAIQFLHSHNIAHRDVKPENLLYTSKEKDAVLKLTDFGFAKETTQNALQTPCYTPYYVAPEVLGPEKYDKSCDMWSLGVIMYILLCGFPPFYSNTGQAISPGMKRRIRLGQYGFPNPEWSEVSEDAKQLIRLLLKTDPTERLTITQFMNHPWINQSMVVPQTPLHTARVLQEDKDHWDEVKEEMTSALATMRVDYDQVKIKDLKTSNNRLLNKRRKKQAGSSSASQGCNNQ

JAK1 = JAK1 (Homo sapiens, UniProt P23458)
ALK = ALK (Homo sapiens, UniProt Q9UM73)
MYLK2 = MYLK2 (Homo sapiens, UniProt Q9H1R3)
PKCi = PKCi (Homo sapiens, UniProt P41743)
PAK4 = PAK4 (Homo sapiens, UniProt O96013)

21c Remaining activity, percent of control [%] (LCK): 92.0% | 21c Remaining activity, percent of control [%] (NEK6): 89.5% | 21c Remaining activity, percent of control [%] (MKNK2): 105.8% | 21c Remaining activity, percent of control [%] (JNK3): 84.9% | 21c Remaining activity, percent of control [%] (BMPR1B): 80.1% | 21c Remaining activity, percent of control [%] (FAK): 91.4% | 21c Remaining activity, percent of control [%] (ACVR2B): 100.5% | 21c Remaining activity, percent of control [%] (CDK4/CycD2): 106.8% | 21c Remaining activity, percent of control [%] (ARK5): 86.3% | 21c Remaining activity, percent of control [%] (IKKe): 103.6% | 21c Remaining activity, percent of control [%] (DYRK4): 95.6% | 21c Remaining activity, percent of control [%] (TSSK1): 95.8% | 21c Remaining activity, percent of control [%] (SLK): 61.9% | 21c Remaining activity, percent of control [%] (DCAMKL2): 99.3% | 21c Remaining activity, percent of control [%] (STK39): 49.5% | 21c Remaining activity, percent of control [%] (TLK2): 95.4% | 21c Remaining activity, percent of control [%] (PKMzeta): 96.2% | 21c Remaining activity, percent of control [%] (EPHB2): 100.1% | 21c Remaining activity, percent of control [%] (CHK2): 84.0% | 21c Remaining activity, percent of control [%] (ROCK1): 98.4% | 21c Remaining activity, percent of control [%] (RPS6KA1): 90.5% | 21c Remaining activity, percent of control [%] (GRK2): 96.7% | 21c Remaining activity, percent of control [%] (VEGFR2): 90.3% | 21c Remaining activity, percent of control [%] (CK2a1): 95.5% | 21c Remaining activity, percent of control [%] (CDK8): 88.5% | 21c Remaining activity, percent of control [%] (MAPKAPK3): 95.7% | 21c Remaining activity, percent of control [%] (JAK1): 88.0% | 21c Remaining activity, percent of control [%] (ALK): 100.1% | 21c Remaining activity, percent of control [%] (MYLK2): 79.0% | 21c Remaining activity, percent of control [%] (PKCi): 83.5% | 21c Remaining activity, percent of control [%] (PAK4): 95.1%
SMILES: O=C1NCCCCCNc2nc(c3ccccc3n2)Nc2cc1[nH]n2 [21c, (Z)-3^1H-2,5,11-triaza-1(4,2)-quinazolina-3(3,5)-pyrazolacycloundecaphan-4-one]
